Data from ChEMBL document CHEMBL5625234, “Magic shotgun approach to anti-inflammatory pharmacotherapy: Synthesis of novel thienopyrimidine monomers/heterodimer as dual COX-2 and 15-LOX inhibitors endowed with potent antioxidant activity” (Eur J Med Chem, 2023).

Assays:
[1] = target: T1, Prostaglandin G/H synthase 1 (Ovis aries, UniProt P05979); experiment: Inhibition of ovine COX-1 using arachidonic acid as substrate preincubated for 10 mins followed by substrate addition and measured after 2 mins by ELISA
T1 sequence (P05979 whole entry): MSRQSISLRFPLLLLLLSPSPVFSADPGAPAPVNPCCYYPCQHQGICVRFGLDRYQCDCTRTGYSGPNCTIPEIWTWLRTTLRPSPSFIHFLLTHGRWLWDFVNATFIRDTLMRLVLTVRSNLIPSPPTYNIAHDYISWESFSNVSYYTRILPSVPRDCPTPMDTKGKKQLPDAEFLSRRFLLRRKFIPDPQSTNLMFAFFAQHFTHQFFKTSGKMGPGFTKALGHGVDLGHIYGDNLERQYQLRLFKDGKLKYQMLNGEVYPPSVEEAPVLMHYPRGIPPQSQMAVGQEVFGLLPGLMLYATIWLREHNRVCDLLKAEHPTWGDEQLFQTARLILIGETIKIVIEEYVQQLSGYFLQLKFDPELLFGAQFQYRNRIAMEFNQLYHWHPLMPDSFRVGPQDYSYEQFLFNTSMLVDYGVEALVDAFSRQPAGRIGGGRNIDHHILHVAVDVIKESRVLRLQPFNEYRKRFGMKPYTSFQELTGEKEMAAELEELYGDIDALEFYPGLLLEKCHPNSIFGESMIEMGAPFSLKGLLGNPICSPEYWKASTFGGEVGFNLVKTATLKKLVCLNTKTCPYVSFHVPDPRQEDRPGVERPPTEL

RAW264.7 [2] = experiment: cells; conditions: Mus musculus
[3] = Inhibition of soybean 15-LOX using arachidonic acid/linolenic acid as substrate preincubated for 5 mins followed by substrate addition and measured after 10 mins by absorbance based assay; set-up: species or system Glycine max
[4] = target: T2, Prostaglandin G/H synthase 2 (Ovis aries, UniProt P79208); experiment: Inhibition of ovine COX-2 using arachidonic acid as substrate preincubated for 5 mins followed by substrate addition and measured after 2 mins by colorimetric assay
T2 sequence (P79208 whole entry): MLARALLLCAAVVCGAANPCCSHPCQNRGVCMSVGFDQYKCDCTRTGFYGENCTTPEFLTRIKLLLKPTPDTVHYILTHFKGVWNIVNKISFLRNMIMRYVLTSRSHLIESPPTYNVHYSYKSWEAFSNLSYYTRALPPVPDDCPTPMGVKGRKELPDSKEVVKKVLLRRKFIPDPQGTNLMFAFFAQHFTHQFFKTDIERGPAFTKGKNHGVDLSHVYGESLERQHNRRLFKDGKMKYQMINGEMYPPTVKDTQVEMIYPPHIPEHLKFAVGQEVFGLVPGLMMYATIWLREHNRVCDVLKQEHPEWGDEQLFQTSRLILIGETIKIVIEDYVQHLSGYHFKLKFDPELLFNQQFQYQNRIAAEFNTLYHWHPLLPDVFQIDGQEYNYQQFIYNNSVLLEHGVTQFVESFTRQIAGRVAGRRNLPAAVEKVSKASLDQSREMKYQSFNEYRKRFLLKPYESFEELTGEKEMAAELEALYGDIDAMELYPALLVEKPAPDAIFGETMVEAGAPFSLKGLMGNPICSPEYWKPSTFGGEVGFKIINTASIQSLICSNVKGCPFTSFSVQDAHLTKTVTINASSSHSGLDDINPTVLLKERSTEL

Ovis aries = species on record: Ovis aries; experiment: Selectivity index, ratio of IC50 for inhibition of ovine COX-1 to IC50 for inhibition of ovine COX-2
[5] = Inhibition of soybean 15-LOX using arachidonic acid as substrate preincubated with compound followed by substrate addition and measured after 5 mins by absorbance based microplate reader; set-up: species or system Glycine max
RAW264.7 [6] = experiment: cells; conditions: Mus musculus; remark: listed apart in the source
RAW264.7 [7] = experiment: cells; conditions: Mus musculus; remark: listed apart in the source
RAW264.7 [8] = experiment: cells; conditions: Mus musculus; remark: listed apart in the source
[9] = target: COX-1/COX-2 (Homo sapiens) (UniProt P35354+P23219); experiment: Selectivity index, ratio of IC50 for inhibition of human COX-1 to IC50 for inhibition of human COX-2; type: protein assay
[10] = target: T3, Prostaglandin G/H synthase 2 (Homo sapiens, UniProt P35354); experiment: Inhibition of human COX-2
T3 sequence (P35354 whole entry): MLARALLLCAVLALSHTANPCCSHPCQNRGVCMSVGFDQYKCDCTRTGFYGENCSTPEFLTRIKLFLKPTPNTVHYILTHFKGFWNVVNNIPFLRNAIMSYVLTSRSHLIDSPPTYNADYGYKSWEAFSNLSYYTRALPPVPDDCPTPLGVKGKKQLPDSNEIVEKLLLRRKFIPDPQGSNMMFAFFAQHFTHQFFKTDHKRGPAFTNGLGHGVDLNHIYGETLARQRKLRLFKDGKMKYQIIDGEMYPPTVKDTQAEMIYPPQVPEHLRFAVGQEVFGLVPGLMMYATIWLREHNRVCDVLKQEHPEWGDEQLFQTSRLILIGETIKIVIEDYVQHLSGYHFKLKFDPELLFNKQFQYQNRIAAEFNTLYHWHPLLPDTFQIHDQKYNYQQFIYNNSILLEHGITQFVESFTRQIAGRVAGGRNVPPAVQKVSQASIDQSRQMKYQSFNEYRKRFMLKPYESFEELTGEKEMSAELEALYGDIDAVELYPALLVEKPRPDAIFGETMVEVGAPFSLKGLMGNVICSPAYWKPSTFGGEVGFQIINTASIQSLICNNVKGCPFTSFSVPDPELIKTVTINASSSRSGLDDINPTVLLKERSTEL

[11] = target: T4, Polyunsaturated fatty acid lipoxygenase ALOX15 (Homo sapiens, UniProt P16050); experiment: Inhibition of 15-LOX (unknown origin) using linoleic acid as substrate incubated for 5 mins by absorbance based assay
T4 sequence (P16050 whole entry): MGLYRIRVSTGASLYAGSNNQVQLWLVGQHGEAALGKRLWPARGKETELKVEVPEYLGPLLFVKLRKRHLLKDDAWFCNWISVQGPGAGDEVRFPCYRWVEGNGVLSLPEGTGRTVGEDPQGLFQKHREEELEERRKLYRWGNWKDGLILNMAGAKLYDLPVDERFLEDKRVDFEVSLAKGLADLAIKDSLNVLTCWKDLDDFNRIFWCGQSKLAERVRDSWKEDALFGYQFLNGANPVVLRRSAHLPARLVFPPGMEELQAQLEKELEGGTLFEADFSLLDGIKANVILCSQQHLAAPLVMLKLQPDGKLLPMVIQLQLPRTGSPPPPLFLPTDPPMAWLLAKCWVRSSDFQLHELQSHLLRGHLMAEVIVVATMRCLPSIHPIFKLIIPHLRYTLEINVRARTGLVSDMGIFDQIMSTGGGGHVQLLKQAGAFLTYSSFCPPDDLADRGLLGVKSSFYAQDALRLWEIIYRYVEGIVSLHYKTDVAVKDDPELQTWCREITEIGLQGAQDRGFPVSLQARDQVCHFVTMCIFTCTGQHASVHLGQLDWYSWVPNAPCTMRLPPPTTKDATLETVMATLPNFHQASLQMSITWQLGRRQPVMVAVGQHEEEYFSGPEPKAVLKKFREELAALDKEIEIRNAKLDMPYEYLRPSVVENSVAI

[12] = target: T3, Prostaglandin G/H synthase 2; experiment: Inhibition of human COX-2 using arachidonic acid as substrate incubated for 30 secs by ELISA

Chain of COX-1/COX-2 (Homo sapiens) (P23219 whole entry, looked up, one chain of several): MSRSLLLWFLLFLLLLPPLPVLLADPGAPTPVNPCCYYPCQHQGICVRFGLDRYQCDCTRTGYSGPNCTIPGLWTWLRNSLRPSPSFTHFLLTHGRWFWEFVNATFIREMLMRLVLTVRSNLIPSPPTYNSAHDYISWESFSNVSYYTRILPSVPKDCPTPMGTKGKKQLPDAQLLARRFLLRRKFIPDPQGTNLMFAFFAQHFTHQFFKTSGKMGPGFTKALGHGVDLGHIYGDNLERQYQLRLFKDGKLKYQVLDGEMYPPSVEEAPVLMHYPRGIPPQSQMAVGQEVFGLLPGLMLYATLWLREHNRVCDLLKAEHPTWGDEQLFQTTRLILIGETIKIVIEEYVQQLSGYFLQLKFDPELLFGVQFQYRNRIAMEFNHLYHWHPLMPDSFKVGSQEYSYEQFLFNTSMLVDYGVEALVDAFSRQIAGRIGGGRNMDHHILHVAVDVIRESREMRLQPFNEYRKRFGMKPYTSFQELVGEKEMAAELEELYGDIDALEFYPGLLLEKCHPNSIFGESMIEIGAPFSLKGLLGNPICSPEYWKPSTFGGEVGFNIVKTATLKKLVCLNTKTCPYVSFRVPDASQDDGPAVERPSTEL

| IC50 [1] [µM] | IC50 (RAW264.7 [2]) [µM] | IC50 [3] [µM] | SMILES | also measured |
| --- | --- | --- | --- | --- |
| 9.87 | > 100 | 3.41 | O=[N+]([O-])c1ccc(-c2nc(Nc3ccc(Br)cc3)c3c4c(sc3n2)CCCC4)cc1 | IC50 (RAW264.7 [8]): > 100 µM |
| 8.2 | > 100 | 4.49 | Cc1ccc(Nc2nc(-c3ccc(Cl)cc3)nc3sc4c(c23)CCCC4)cc1 | IC50 (RAW264.7 [6]): > 100 µM |
| 5.82 | – | 4.81 | Fc1ccc(Nc2nc(-c3ccc(Cl)cc3)nc3sc4c(c23)CCCC4)cc1 | IC50 (RAW264.7 [7]): > 100 µM |
| 9.53 | > 100 | 2.4 | COc1ccc(-c2nc(Nc3ccc(Br)cc3)c3c4c(sc3n2)CCCC4)cc1 | – |
| 9.12 | > 100 | 2.11 | Clc1ccc(-c2nc(Nc3ccc(Br)cc3)c3c4c(sc3n2)CCCC4)cc1 | – |
| 6.49 | > 100 | 3.99 | O=[N+]([O-])c1ccc(-c2nc(Nc3cccc(Br)c3)c3c4c(sc3n2)CCCC4)cc1 | – |
| 8.55 | > 100 | 3.36 | Clc1ccc(-c2nc(Nc3cccc(Br)c3)c3c4c(sc3n2)CCCC4)cc1 | IC50 (RAW264.7 [6]): > 100 µM |

Continued, compound first:

| SMILES | IC50 [1] [µM] | IC50 (RAW264.7 [2]) [µM] | IC50 [3] [µM] | also measured |
| --- | --- | --- | --- | --- |
| O=[N+]([O-])c1ccc(-c2nc(Nc3ccc(F)cc3)c3c4c(sc3n2)CCCC4)cc1 | 7.18 | > 100 | 3.63 | – |
| Clc1ccc(-c2nn(-c3ccccc3)cc2/C=N/Nc2ncnc3c(-c4ccccc4)csc23)cc1 | – | – | – | IC50 [4]: 0.048 µM; Ratio IC50 (Ovis aries): 248 |
| COc1cc(/C=C2\S/C(=N/c3nnc(C)s3)NC2=O)cc(OC)c1OC | 12.3 | – | 10.9 | – |
| O=C(C/C(=C/c1cccc([N+](=O)[O-])c1)c1n[nH]c(=S)o1)c1ccc(Cl)c(Cl)c1 | 10.4 | – | – | IC50 [5]: 1.63 µM |
| COc1cc(-c2nc(Nc3ccc(C)cc3)c3c4c(sc3n2)CCCC4)cc(OC)c1OC | 8.5 | > 100 | 2.66 | IC50 (RAW264.7 [6]): > 100 µM; IC50 (RAW264.7 [7]): > 100 µM |
| COc1ccc(-c2nc(Nc3ccc(F)cc3)c3c4c(sc3n2)CCCC4)cc1 | 11.4 | > 100 | 1.97 | IC50 (RAW264.7 [7]): > 100 µM |
| CSc1nnc2n(Cc3ccccc3)c(=O)c3c4c(sc3n12)CCCC4 | – | – | – | Ratio IC50 [9]: 192; IC50 [10]: 0.52 µM |
| COc1ccc(-c2nc(NNc3ncnc4sc5c(c34)CCCC5)c3c4c(sc3n2)CCCC4)cc1 | 11.3 | > 100 | 1.86 | – |
| CCn1c(-n2cc(/C=N/N=c3\scc(-c4ccc(Br)cc4)n3-c3ccccc3)c(-c3ccc(Cl)cc3)n2)nc2[nH]c(=O)n(C)c(=O)c21 | – | – | – | IC50 [11]: 1.76 µM |
| CCn1c(-n2cc(/C=N/N=c3\scc(-c4ccc(Br)cc4)n3-c3ccccc3)c(-c3ccc(OC)cc3)n2)nc2[nH]c(=O)n(C)c(=O)c21 | – | – | – | IC50 [11]: 1.82 µM |
| COc1cc(-c2nc(Nc3ccc(F)cc3)c3c4c(sc3n2)CCCC4)cc(OC)c1OC | 10.9 | > 100 | 2.29 | IC50 (RAW264.7 [8]): 168 µM |
| Cc1ccc(Nc2nc(-c3ccc([N+](=O)[O-])cc3)nc3sc4c(c23)CCCC4)cc1 | 8.2 | > 100 | 2.76 | – |
| CS(=O)(=O)c1ccc(C2CN(c3ccc(C(F)(F)F)cc3)N=N2)cc1 (centres undefined) | – | – | – | IC50 [12]: 0.226 µM |
| O=c1[nH]/c(=C\c2nnc(-c3ccc(O)cc3)s2)s/c1=C\c1ccc(Cl)c(Cl)c1 | 15.4 | – | 11.9 | – |
